Test results published in patent publication US12545639B2, “3-substituted phenylamidine compounds, preparation and use thereof” (PI INDUSTRIES LTD., priority 2019, dated 2026).

Tests used:
Pyricularia oryzae = experiment: microbe, parasite or virus in culture; format: cell-based; details: 168 h, read-out: control compared to the untreated check (radial growth)
Rhizoctonia solani = Rhizoctonia solani (rice sheath blight/potato black scurf) in vitro test, radial growth on potato dextrose agar; format: cell-based; details: 168 h, 300 ppm in potato dextrose agar, 25° C., 60% relative humidity, seven days, read-out: control compared to the untreated check (radial growth)
Botrytis cinerea = Botrytis cinerea (gray mold) in vitro test, radial growth on potato dextrose agar; format: cell-based; details: 168 h, 300 ppm in potato dextrose agar, 22° C., 90% relative humidity, seven days, read-out: control compared to the untreated check (radial growth)
Alternaria solani = Alternaria solani (early blight of tomato/potato) in vitro test, radial growth on potato dextrose agar; format: cell-based; details: 168 h, 300 ppm in potato dextrose agar, 25° C., 60% relative humidity, seven days, read-out: control compared to the untreated check (radial growth)
[1] = tested on: Septoria lycopersici/Corynespora cassicola (CORYCA); experiment: Septoria lycopersici/Corynespora cassicola (CORYCA) (leaf spot of tomato) in vitro test, radial growth on potato dextrose agar; format: cell-based; details: 168 h, 300 ppm in potato dextrose agar, 25° C., 70% relative humidity, seven days, read-out: control compared to the untreated check (radial growth)
Phakopsora pachyrhizi = Phakopsora pachyrhizi test in soybean, preventive, in vivo on plants; details: in Glycine max, read-out: Efficacy (% control), disease severity compared to the untreated check

CCN(C)C=Nc1cc(F)cc(Cc2ccc(Cl)c(F)c2)c1C [Compound 206, N′-(3-(4-chloro-3-fluorobenzyl)-5-fluoro-2-methylphenyl)-N-ethyl-N-methylformimidamide]
≥ 70%: inhibition of growth at 300 ppm (Pyricularia oryzae) | inhibition of growth at 300 ppm (Rhizoctonia solani) | inhibition of growth at 300 ppm (Botrytis cinerea) | inhibition of growth at 300 ppm (Alternaria solani) | inhibition of growth at 300 ppm [1] | pest or weed control at 500 ppm (Phakopsora pachyrhizi)

CCN(C)C=Nc1cc(F)cc(Nc2cccc(C(F)(F)F)n2)c1C [Compound 273, N-ethyl-N′-(5-fluoro-2-methyl-3-((6-(trifluoromethyl)pyridin-2-yl)amino)phenyl)-N-methylformimidamide]
≥ 70%: inhibition of growth at 300 ppm (Pyricularia oryzae) | inhibition of growth at 300 ppm (Rhizoctonia solani) | inhibition of growth at 300 ppm (Botrytis cinerea) | inhibition of growth at 300 ppm (Alternaria solani) | inhibition of growth at 300 ppm [1] | pest or weed control at 500 ppm (Phakopsora pachyrhizi)

CCN(C)C=Nc1cc(Cl)cc(Nc2ccccc2OC(F)(F)F)c1C [Compound 301, N′-(5-chloro-2-methyl-3-((2-(trifluoromethoxy)phenyl)amino)phenyl)-N-ethyl-N-methylformimidamide]
≥ 70%: inhibition of growth at 300 ppm (Pyricularia oryzae) | inhibition of growth at 300 ppm (Rhizoctonia solani) | inhibition of growth at 300 ppm (Botrytis cinerea) | inhibition of growth at 300 ppm (Alternaria solani) | inhibition of growth at 300 ppm [1] | pest or weed control at 500 ppm (Phakopsora pachyrhizi)

CCN(C)C=Nc1cc(F)cc(Nc2ccc(Cl)cc2F)c1C [Compound 136, N′-(3-((4-chloro-2-fluorophenyl)amino)-5-fluoro-2-methylphenyl)-N-ethyl-N-methylformimidamide]
≥ 70%: inhibition of growth at 300 ppm (Pyricularia oryzae) | inhibition of growth at 300 ppm (Rhizoctonia solani) | inhibition of growth at 300 ppm (Botrytis cinerea) | inhibition of growth at 300 ppm (Alternaria solani) | inhibition of growth at 300 ppm [1]

CCN(C)C=Nc1cc(F)cc(N(C)c2cc(F)cc(F)c2)c1C [Compound 84, N′-(3-((3,5-difluorophenyl)(methyl)amino)-5-fluoro-2-methylphenyl)-N-ethyl-N-methylformimidamide]
≥ 70%: inhibition of growth at 300 ppm (Rhizoctonia solani) | inhibition of growth at 300 ppm (Botrytis cinerea) | inhibition of growth at 300 ppm (Alternaria solani) | inhibition of growth at 300 ppm [1] | pest or weed control at 500 ppm (Phakopsora pachyrhizi)

CCN(C)C=Nc1cc(Cl)cc(N(C)c2ccccc2C)c1C [Compound 191, N′-(5-chloro-2-methyl-3-(methyl(o-tolyl)amino)phenyl)-N-ethyl-N-methylformimidamide]
≥ 70%: inhibition of growth at 300 ppm (Pyricularia oryzae) | inhibition of growth at 300 ppm (Rhizoctonia solani) | inhibition of growth at 300 ppm (Botrytis cinerea) | inhibition of growth at 300 ppm (Alternaria solani) | inhibition of growth at 300 ppm [1] | pest or weed control at 500 ppm (Phakopsora pachyrhizi)

CCN(C)C=Nc1cc(OC)cc(Cc2cccc(C(F)(F)F)c2)c1C [Compound 296, N-ethyl-N′-(5-methoxy-2-methyl-3-(3-(trifluoromethyl)benzyl)phenyl)-N-methylformimidamide]
≥ 70%: inhibition of growth at 300 ppm (Pyricularia oryzae) | inhibition of growth at 300 ppm (Rhizoctonia solani) | inhibition of growth at 300 ppm (Botrytis cinerea) | inhibition of growth at 300 ppm (Alternaria solani) | inhibition of growth at 300 ppm [1] | pest or weed control at 500 ppm (Phakopsora pachyrhizi)

CCN(C)C=Nc1cc(F)cc(Cc2cccc(C)c2)c1C [Compound 146, N-ethyl-N′-(5-fluoro-2-methyl-3-(3-methylbenzyl)phenyl)-N-methylformimidamide]
≥ 70%: inhibition of growth at 300 ppm (Pyricularia oryzae) | inhibition of growth at 300 ppm (Rhizoctonia solani) | inhibition of growth at 300 ppm (Botrytis cinerea) | inhibition of growth at 300 ppm (Alternaria solani) | inhibition of growth at 300 ppm [1] | pest or weed control at 500 ppm (Phakopsora pachyrhizi)

CCN(C)C=Nc1cc(F)cc(Cc2ccccc2Br)c1C [Compound 151, N′-(3-(2-bromobenzyl)-5-fluoro-2-methylphenyl)-N-ethyl-N-methylformimidamide]
≥ 70%: inhibition of growth at 300 ppm (Pyricularia oryzae) | inhibition of growth at 300 ppm (Rhizoctonia solani) | inhibition of growth at 300 ppm (Botrytis cinerea) | inhibition of growth at 300 ppm (Alternaria solani) | inhibition of growth at 300 ppm [1] | pest or weed control at 500 ppm (Phakopsora pachyrhizi)

CCN(C)C=Nc1cc(C)cc(Cc2ccccc2)c1Cl [Compound 70, N′-(3-benzyl-2-chloro-5-methylphenyl)-N-ethyl-N-methylformimidamide]
≥ 70%: inhibition of growth at 300 ppm (Pyricularia oryzae) | inhibition of growth at 300 ppm (Rhizoctonia solani) | inhibition of growth at 300 ppm (Botrytis cinerea) | inhibition of growth at 300 ppm (Alternaria solani) | inhibition of growth at 300 ppm [1] | pest or weed control at 500 ppm (Phakopsora pachyrhizi)

CCN(C)C=Nc1cc(F)cc(N(C)c2cc(C)cc(F)c2)c1C [Compound 119, N-ethyl-N′-(5-fluoro-3-((3-fluoro-5-methylphenyl)(methyl)amino)-2-methylphenyl)-N-methylformimidamide]
≥ 70%: inhibition of growth at 300 ppm (Pyricularia oryzae) | inhibition of growth at 300 ppm (Botrytis cinerea) | inhibition of growth at 300 ppm (Alternaria solani) | inhibition of growth at 300 ppm [1] | pest or weed control at 500 ppm (Phakopsora pachyrhizi)

CCN(C)C=Nc1cc(C#N)cc(Cc2ccccc2)c1C [Compound 308, N′-(3-benzyl-5-cyano-2-methylphenyl)-N-ethyl-N-methylformimidamide]
≥ 70%: inhibition of growth at 300 ppm (Pyricularia oryzae) | inhibition of growth at 300 ppm (Rhizoctonia solani) | inhibition of growth at 300 ppm (Botrytis cinerea) | inhibition of growth at 300 ppm (Alternaria solani) | inhibition of growth at 300 ppm [1]

CCN(C)C=Nc1cc(F)cc(Nc2ccc(F)cc2F)c1C [Compound 76, N′-(3-((2,4-difluorophenyl)amino)-5-fluoro-2-methylphenyl)-N-ethyl-N-methylformimidamide]
≥ 70%: inhibition of growth at 300 ppm (Pyricularia oryzae) | inhibition of growth at 300 ppm (Rhizoctonia solani) | inhibition of growth at 300 ppm (Botrytis cinerea) | inhibition of growth at 300 ppm (Alternaria solani) | inhibition of growth at 300 ppm [1]

CCN(C)C=Nc1cc(F)cc(N(C)c2ccc(Cl)cc2F)c1C [Compound 140, N′-(3-((4-chloro-2-fluorophenyl)(methyl)amino)-5-fluoro-2-methylphenyl)-N-ethyl-N-methylformimidamide]
≥ 70%: inhibition of growth at 300 ppm (Pyricularia oryzae) | inhibition of growth at 300 ppm (Rhizoctonia solani) | inhibition of growth at 300 ppm (Botrytis cinerea) | inhibition of growth at 300 ppm (Alternaria solani) | inhibition of growth at 300 ppm [1]

CCN(C)C=Nc1cc(C)cc(Nc2ccccc2OC(F)(F)F)c1Cl [Compound 302, N′-(2-chloro-5-methyl-3-((2-(trifluoromethoxy)phenyl)amino)phenyl)-N-ethyl-N-methylformimidamide]
≥ 70%: inhibition of growth at 300 ppm (Pyricularia oryzae) | inhibition of growth at 300 ppm (Rhizoctonia solani) | inhibition of growth at 300 ppm (Botrytis cinerea) | inhibition of growth at 300 ppm (Alternaria solani) | inhibition of growth at 300 ppm [1]

CCN(C)C=Nc1cc(F)cc(Nc2ccccc2OC(F)(F)F)c1C [Compound 303, N-ethyl-N′-(5-fluoro-2-methyl-3-((2-(trifluoromethoxy)phenyl)amino)phenyl)-N-methylformimidamide]
≥ 70%: inhibition of growth at 300 ppm (Pyricularia oryzae) | inhibition of growth at 300 ppm (Rhizoctonia solani) | inhibition of growth at 300 ppm (Botrytis cinerea) | inhibition of growth at 300 ppm (Alternaria solani) | inhibition of growth at 300 ppm [1]

CCN(C)C=Nc1cc(F)cc(Cc2ccccc2F)c1C [Compound 141, N-ethyl-N′-(5-fluoro-3-(2-fluorobenzyl)-2-methylphenyl)-N-methylformimidamide]
≥ 70%: inhibition of growth at 300 ppm (Pyricularia oryzae) | inhibition of growth at 300 ppm (Rhizoctonia solani) | inhibition of growth at 300 ppm (Botrytis cinerea) | inhibition of growth at 300 ppm [1]

CCN(C)C=Nc1cc(Cl)cc(N(C)c2ccccc2)c1C [Compound 159, N′-(5-chloro-2-methyl-3-(methyl(phenyl)amino)phenyl)-N-ethyl-N-methylformimidamide]
≥ 70%: inhibition of growth at 300 ppm (Pyricularia oryzae) | inhibition of growth at 300 ppm (Botrytis cinerea) | inhibition of growth at 300 ppm (Alternaria solani) | inhibition of growth at 300 ppm [1] | pest or weed control at 500 ppm (Phakopsora pachyrhizi)

CCN(C)C=Nc1cc(C#N)cc(Cc2cccc(F)c2)c1C [Compound 297, N′-(5-cyano-3-(3-fluorobenzyl)-2-methylphenyl)-N-ethyl-N-methylformimidamide]
≥ 70%: inhibition of growth at 300 ppm (Pyricularia oryzae) | inhibition of growth at 300 ppm (Botrytis cinerea) | inhibition of growth at 300 ppm (Alternaria solani) | inhibition of growth at 300 ppm [1] | pest or weed control at 500 ppm (Phakopsora pachyrhizi)

CCN(C)C=Nc1cc(Cl)cc(Nc2cccc(F)c2)c1C [Compound 166, N′-(5-chloro-3-((3-fluorophenyl)amino)-2-methylphenyl)-N-ethyl-N-methylformimidamide]
≥ 70%: inhibition of growth at 300 ppm (Pyricularia oryzae) | inhibition of growth at 300 ppm (Botrytis cinerea) | inhibition of growth at 300 ppm (Alternaria solani) | inhibition of growth at 300 ppm [1]

CCN(C)C=Nc1cc(C)cc(Nc2ccc(F)c(F)c2)c1Cl [Compound 72, N′-(2-chloro-3-((3,4-difluorophenyl)amino)-5-methylphenyl)-N-ethyl-N-methylformimidamide]
≥ 70%: inhibition of growth at 300 ppm (Pyricularia oryzae) | inhibition of growth at 300 ppm (Rhizoctonia solani) | inhibition of growth at 300 ppm (Botrytis cinerea) | inhibition of growth at 300 ppm (Alternaria solani) | inhibition of growth at 300 ppm [1]

CCN(C)C=Nc1cc(F)cc(N(C)c2cc(C)ccc2Cl)c1C [Compound 117, N′-(3-((2-chloro-5-methylphenyl)(methyl)amino)-5-fluoro-2-methylphenyl)-N-ethyl-N-methylformimidamide]
≥ 70%: inhibition of growth at 300 ppm (Pyricularia oryzae) | inhibition of growth at 300 ppm (Botrytis cinerea) | inhibition of growth at 300 ppm (Alternaria solani) | inhibition of growth at 300 ppm [1] | pest or weed control at 500 ppm (Phakopsora pachyrhizi)

CCN(C)C=Nc1cc(C)cc(N(C)c2cccc(C)c2)c1Cl [Compound 43, N′-(2-chloro-5-methyl-3-(methyl(m-tolyl)amino)phenyl)-N-ethyl-N-methylformimidamide]
≥ 70%: inhibition of growth at 300 ppm (Botrytis cinerea) | inhibition of growth at 300 ppm (Alternaria solani) | inhibition of growth at 300 ppm [1] | pest or weed control at 500 ppm (Phakopsora pachyrhizi)
